Assay results taken from patent publication US20150064252A1, “SOLID DISPERSION FORMULATION OF AN ANTIVIRAL COMPOUND” (Gilead Pharmasset LLC, priority 2013, published 2015).

Legend:
[1] = Pharmacokinetics of Compound I after single and multiple oral doses of solid dispersion tablets; assay type: in vivo, human; conditions: for half-life: t1/2
Method: The Compound I formulation is prepared as described above by combining Compound I amorphous free base in a 1:1 ratio by mass with copovidone, which is all dissolved in ethanol and spray dried to produce the Compound I solid dispersion. The Compound I solid dispersion is then mixed with various excipients in a dry granulation process to produce tablets that are film coated prior to packaging.
5 mg, 25 mg, 50 mg, and 100 mg tablet formulations were prepared according to Tables 1A and 1B).

[2] = Spray dry feed solution and solid dispersion evaluation (solubility, stability); assay type: physicochemical
Method: The spray dry feed solution was prepared by solubilizing Compound I and polymer in the feed solvent. In certain cases, aggressive mixing or homogenization can be used to avoid clumping of the composition.
Different polymers were tested for preferred characteristics in the solid dispersions.
The feed solution was initially evaluated for appropriate solvent with regard to solubility, stability, and viscosity. […] Ethanol and methanol-based feed stocks were assessed for preparation ease and spray dried at a range of inlet and outlet temperatures to assess the robustness of the spray dry process. Both solvents gave rapid dissolution of Compound I and copovidone.

[3] = Food effect on Compound I pharmacokinetics (fed vs fasted, light or high-fat breakfast); assay type: in vivo, human; conditions: for AUCinf % GLSM Ratio (Fed/Fasted) / AUClast % GLSM Ratio (Fed/Fasted) / Cmax % GLSM Ratio (Fed/Fasted) / Cmax / AUC(0-inf) / AUC(0-t): 100 mg; for Cmax / AUC(0-inf) / AUC(0-t): human, plasma, oral, N = 12; for AUC(0-inf): read-out: AUCinf GLSM; for AUC(0-t): read-out: AUClast GLSM
[4] = test system: HCV infection of genotypes 1 to 6; conditions: cited from earlier work
[5] = high-fat/high-calorie breakfast vs fasted
[6] = 100 mg fasted, high-fat breakfast cohort (Cohort 6)
[7] = 100 mg fasted, light breakfast cohort (Cohort 5)

COC[C@H]1C[C@@H](c2ncc(-c3ccc4c(c3)COc3cc5c(ccc6nc([C@@H]7CC[C@H](C)N7C(=O)[C@@H](NC(=O)OC)C(C)C)[nH]c65)cc3-4)[nH]2)N(C(=O)[C@H](NC(=O)OC)c2ccccc2)C1 [Compound I, Methyl {(2S)-1-[(2S,5S)-2-(9-{2-[(2S,4S)-1-{(2R)-2-[(methoxycarbonyl)amino]-2-phenylacetyl}-4-(methoxymethyl)pyrrolidin-2-yl]-1H-imidazol-5-yl}-1,11-dihydroisochromeno[4′,3′:6,7]naphtho[1,2-d]imidazol-2-yl)-5-methylpyrrolidin-1-yl]-3-methyl-1-oxobutan-2-yl}carbamate]
dose proportionality of exposure (AUC and Cmax) ([1]; human, in vivo): nonlinear PK
AUC(0-inf) ([1]; human, in vivo, 5 mg): 159 ng·h/mL
AUC(0-t) ([1]; human, in vivo, 5 mg): 134 ng·h/mL
CL/F ([1]; human, in vivo, 5 mg): 58,398.0 mL/h
Cmax ([1]; human, in vivo, 5 mg): 22.4 ng/mL
Tmax ([1]; human, in vivo, 5 mg, Tmax): 1.5 h
half-life ([1]; human, in vivo, 5 mg): 11.2 h
AUC(0-inf) ([1]; human, in vivo, 50 mg): 3020 ng·h/mL
AUC(0-t) ([1]; human, in vivo, 50 mg): 2970 ng·h/mL
CL/F ([1]; human, in vivo, 50 mg): 19,188.4 mL/h
Cmax ([1]; human, in vivo, 50 mg): 371 ng/mL
Tmax ([1]; human, in vivo, 50 mg, Tmax): 2.5 h
half-life ([1]; human, in vivo, 50 mg): 13.6 h
AUC(0-inf) ([1]; human, in vivo, 100 mg): 5060 ng·h/mL
AUC(0-t) ([1]; human, in vivo, 100 mg): 4990 ng·h/mL
CL/F ([1]; human, in vivo, 100 mg): 24,617.9 mL/h
Cmax ([1]; human, in vivo, 100 mg): 575 ng/mL
Tmax ([1]; human, in vivo, 100 mg, Tmax): 2.5 h
half-life ([1]; human, in vivo, 100 mg): 15.7 h
AUC(0-inf) ([1]; human, in vivo, 150 mg): 4980 ng·h/mL
AUC(0-t) ([1]; human, in vivo, 150 mg): 4930 ng·h/mL
Cmax ([1]; human, in vivo, 150 mg): 608 ng/mL
Tmax ([1]; human, in vivo, 150 mg, Tmax): 2.75 h
half-life ([1]; human, in vivo, 150 mg): 16.2 h
AUC(0-inf) ([1]; human, in vivo, 450 mg): 9580 ng·h/mL
AUC(0-t) ([1]; human, in vivo, 450 mg): 9500 ng·h/mL
CL/F ([1]; human, in vivo, 450 mg): 53,676.4 mL/h
Cmax ([1]; human, in vivo, 450 mg): 1120 ng/mL
Tmax ([1]; human, in vivo, 450 mg, Tmax): 3.25 h
half-life ([1]; human, in vivo, 450 mg): 15 h
Tmax ([1]; human, in vivo, po, median Tmax (time of maximum plasma concentrations)): 1.5 to 3.25 h
mean plasma concentrations at 24 hours postdose relative to protein-adjusted EC50 for genotype 1 to 6 HCV replicons ([1]; multiple once-daily doses greater than 5 mg): above the protein-adjusted concentration of a compound inhibiting virus replication by 50% (EC50)
solubility in feed solvent ([2]; ethanol, methanol, acetone, and dichloromethane (DCM)): excellent solubility
chemical stability in feed solution ([2]; ethanolic feed solution): good chemical stability
AUCinf % GLSM Ratio (Fed/Fasted) ([3]; high-fat breakfast): 86.30%
AUClast % GLSM Ratio (Fed/Fasted) ([3]; high-fat breakfast): 86.02%
Cmax % GLSM Ratio (Fed/Fasted) ([3]; high-fat breakfast): 75.02%
AUCinf % GLSM Ratio (Fed/Fasted) ([3]; light breakfast): 124.72%
AUClast % GLSM Ratio (Fed/Fasted) ([3]; light breakfast): 124.84%
Cmax % GLSM Ratio (Fed/Fasted) ([3]; light breakfast): 134.89%
effect of food on absorption and bioavailability ([3]; formulated as a solid dispersion): slowed the rate of absorption
decrease in AUC with food [3, 5]: 14%
decrease in Cmax with food [3, 5]: 25%
Cmax [3, 6]: 486 ng/mL
AUC(0-inf) [3, 6]: 3790 ng·h/mL
AUC(0-t) [3, 6]: 3750 ng·h/mL
Cmax [3, 7]: 582 ng/mL
AUC(0-inf) [3, 7]: 5470 ng·h/mL
AUC(0-t) [3, 7]: 5390 ng·h/mL
Cmax ([3]; 100 mg fed, high-fat breakfast): 364 ng/mL
AUC(0-inf) ([3]; 100 mg fed, high-fat breakfast): 3270 ng·h/mL
AUC(0-t) ([3]; 100 mg fed, high-fat breakfast): 3220 ng·h/mL
Cmax ([3]; 100 mg fed, light breakfast): 785 ng/mL
AUC(0-inf) ([3]; 100 mg fed, light breakfast): 6820 ng·h/mL
AUC(0-t) ([3]; 100 mg fed, light breakfast): 6730 ng·h/mL
increase in AUC with food ([3]; light breakfast vs fasted): 25%
increase in Cmax with food ([3]; light breakfast vs fasted): 35%
anti-HCV activity [4]: potent anti-HCV activity
